Test results from publication PMC10869544 (Frontiers in Immunology, 2024).

Target: NEK7 (Homo sapiens, UniProt Q8TDX7)
Assay: biochemical in vitro kinase assay (Reaction Biology), 10-dose IC50, […] ATP

Chain of NEK7 (Q8TDX7 whole entry): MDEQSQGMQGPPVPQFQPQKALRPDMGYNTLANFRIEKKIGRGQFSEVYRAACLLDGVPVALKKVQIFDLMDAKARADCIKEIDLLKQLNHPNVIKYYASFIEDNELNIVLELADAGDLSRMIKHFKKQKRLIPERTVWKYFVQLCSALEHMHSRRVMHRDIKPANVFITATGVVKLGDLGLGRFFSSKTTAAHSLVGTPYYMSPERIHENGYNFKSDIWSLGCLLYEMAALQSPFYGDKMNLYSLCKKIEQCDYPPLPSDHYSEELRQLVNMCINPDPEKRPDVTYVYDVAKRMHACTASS

Molecule `CCN1CCN(c2ccc(Nc3ncc4scc(-c5cccc(C(=O)NCCN(C)C)c5)c4n3)cc2)CC1` [SLC3037, N-(2-(Dimethylamino)ethyl)-3-(2-((4-(4-ethylpiperazin-1-yl)phenyl)amino)thieno[3,2-d]pyrimidin-7-yl)benzamide] has an IC50 of 2850 nM.
